In the supplement of paper PMC10883282:

Columns and labels:
Assay in all cases: relative viability vs DMSO control (72 h) (fraction); higher = more viable cells
[1] = tested on: SK-LMS-1
Summary of the method: (§1)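 After seeding at densities set for 80–90% confluence in 384-well plates, sarcoma cell lines waited 24 h before 2.5 µl of serially diluted compound was added. Source plates held 10 mM down to 0.0002 mM. Plates were incubated 72 h at 37 °C with 5% CO2, with 0.1% DMSO vehicle and a 5 µM positive control, and relative viability was taken from ATPLite as percent growth averaged over up to triplicate wells, with 1 set as full and 0 as none.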

[2] = tested on: G401
Summary of the method: as §1

[3] = tested on: RD-ES
Summary of the method: as §1

[4] = tested on: KHOS-NP
Summary of the method: as §1

[5] = tested on: SW872
Summary of the method: as §1

[6] = tested on: MES-SA
Summary of the method: as §1

[7] = tested on: VA-ES-BJ
Summary of the method: as §1

[8] = tested on: SW1353
Summary of the method: as §1

[9] = tested on: HT1080
Summary of the method: as §1

[10] = tested on: RD
Summary of the method: as §1

[11] = tested on: SW684
Summary of the method: as §1

[12] = tested on: SK-ES-1
Summary of the method: as §1

Cc1c2oc3c(C)ccc(C(=O)N[C@@H]4C(=O)N[C@H](C(C)C)C(=O)N5CCC[C@H]5C(=O)N(C)CC(=O)N(C)[C@@H](C(C)C)C(=O)O[C@@H]4C)c3nc-2c(C(=O)N[C@@H]2C(=O)N[C@H](C(C)C)C(=O)N3CCC[C@H]3C(=O)N(C)CC(=O)N(C)[C@@H](C(C)C)C(=O)O[C@@H]2C)c(N)c1=O [Dactinomycin]
Conditions	relative viability
[1], 0.00017 µM	1
[1], 0.00051 µM	1.02
[1], 0.00152 µM	0.994
[1], 0.00457 µM	0.86
[1], 0.01372 µM	0.664
[1], 0.04115 µM	0.364
[1], 0.1235 µM	0.292
[1], 0.3704 µM	0.27
[1], 1.111 µM	0.287
[1], 3.333 µM	0.288
[1], 10 µM	0.3
[2], 0.00017 µM	0.948
[2], 0.00051 µM	0.877
[2], 0.00152 µM	0.652
[2], 0.00457 µM	0.441
[2], 0.01372 µM	0.279
[2], 0.04115 µM	0.211
[2], 0.1235 µM	0.155
[2], 0.3704 µM	0.118
[2], 1.111 µM	0.087
[2], 3.333 µM	0.0667
[2], 10 µM	0.0642
[3], 0.00017 µM	1
[3], 0.00051 µM	0.973
[3], 0.00152 µM	0.943
[3], 0.00457 µM	0.88
[3], 0.01372 µM	0.621
[3], 0.04115 µM	0.0824
[3], 0.1235 µM	0.00823
[3], 0.3704 µM	-0.00353
[3], 1.111 µM	-0.00503
[3], 3.333 µM	-0.00297
[3], 10 µM	0.00427
[4], 0.00017 µM	1.06
[4], 0.00051 µM	1.07
[4], 0.00152 µM	1.08
[4], 0.00457 µM	1.04
[4], 0.01372 µM	0.63
[4], 0.04115 µM	0.24
[4], 0.1235 µM	0.0945
[4], 0.3704 µM	0.0744
[4], 1.111 µM	0.0665
[4], 3.333 µM	0.0513
[4], 10 µM	0.0582
[5], 0.00017 µM	0.96
[5], 0.00051 µM	0.975
[5], 0.00152 µM	0.992
[5], 0.00457 µM	0.943
[5], 0.01372 µM	0.765
[5], 0.04115 µM	0.442
[5], 0.1235 µM	0.171
[5], 0.3704 µM	0.218
[5], 1.111 µM	0.189
[5], 3.333 µM	0.187
[5], 10 µM	0.199
[6], 0.00017 µM	0.9129
[6], 0.00051 µM	0.835
[6], 0.00152 µM	0.354
[6], 0.00457 µM	0.321
[6], 0.01372 µM	0.265
[6], 0.04115 µM	0.0423
[6], 0.1235 µM	0.0397
[6], 0.3704 µM	0.0566
[6], 1.111 µM	0.0464
[6], 3.333 µM	0.0357
[6], 10 µM	0.0424
[7], 0.00017 µM	1.01
[7], 0.00051 µM	0.994
[7], 0.00152 µM	0.94
[7], 0.00457 µM	0.733
[7], 0.01372 µM	0.457
[7], 0.04115 µM	0.303
[7], 0.1235 µM	0.151
[7], 0.3704 µM	0.158
[7], 1.111 µM	0.148
[7], 3.333 µM	0.15
[7], 10 µM	0.146
[8], 0.00017 µM	0.971
[8], 0.00051 µM	0.946
[8], 0.00152 µM	0.834
[8], 0.00457 µM	0.71
[8], 0.01372 µM	0.62
[8], 0.04115 µM	0.272
[8], 0.1235 µM	0.242
[8], 0.3704 µM	0.215
[8], 1.111 µM	0.183
[8], 3.333 µM	0.15
[8], 10 µM	0.1334
[9], 0.00017 µM	1.02
[9], 0.00051 µM	1.04
[9], 0.00152 µM	0.9913
[9], 0.00457 µM	0.712
[9], 0.01372 µM	0.553
[9], 0.04115 µM	0.391
[9], 0.1235 µM	0.185
[9], 0.3704 µM	0.171
[9], 1.111 µM	0.137
[9], 3.333 µM	0.128
[9], 10 µM	0.129
[10], 0.00017 µM	1.09
[10], 0.00051 µM	1.12
[10], 0.00152 µM	1.071
[10], 0.00457 µM	0.811
[10], 0.01372 µM	0.64
[10], 0.04115 µM	0.21
[10], 0.1235 µM	0.0929
[10], 0.3704 µM	0.108
[10], 1.111 µM	0.0875
[10], 3.333 µM	0.0715
[10], 10 µM	0.0653
[11], 0.00017 µM	1.13
[11], 0.00051 µM	1.16
[11], 0.00152 µM	1.09
[11], 0.00457 µM	0.992
[11], 0.01372 µM	0.835
[11], 0.04115 µM	0.687
[11], 0.1235 µM	0.763
[11], 0.3704 µM	0.775
[11], 1.111 µM	0.795
[11], 3.333 µM	0.816
[11], 10 µM	0.766
[12], 0.00017 µM	1.03
[12], 0.00051 µM	0.976
[12], 0.00152 µM	0.694
[12], 0.00457 µM	0.423
[12], 0.01372 µM	0.251
[12], 0.04115 µM	0.00443
[12], 0.1235 µM	-0.00147
[12], 0.3704 µM	-0.0034
[12], 1.111 µM	-0.0043
[12], 3.333 µM	-0.00447
[12], 10 µM	0.0007
